Assay results published in the supplement of paper PMC10307832.

Tests used:
Assay in all cases: relative viability (nuclei count vs DMSO), 5 days (fraction); higher = more cells survive
[1] = compound: CC1=C(C(=O)N2C=CSC2=N1)CCN3CCC(=C(C4=CC=CC=C4)C5=CC=C(C=C5)F)CC3 + CS(=O)(=O)N1CCN(Cc2cc3nc(-c4cccc5[nH]ncc45)nc(N4CCOCC4)c3s2)CC1 [Pictilisib] (partner 1 µM)
How it was run: (§1)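 The day after seeding in 1536-well plates, lung cancer cell lines were treated by pin tool with a single drug, or with a fixed anchor-drug dose together with five library-drug doses (not always all listed) in √10 steps. After 5 days, a combined fix-and-stain solution (final 0.05% Triton X-100, 1% formaldehyde, 1 ug/ml Hoechst) was added. Nuclei counted on 4× images gave relative viability as treated counts over vehicle counts, reported as the median of duplicate plates.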

[2] = compound: CC1=C(C(=O)N2C=CSC2=N1)CCN3CCC(=C(C4=CC=CC=C4)C5=CC=C(C=C5)F)CC3 + COc1cccc2cc(-c3nc([C@H]4CC[C@H](C(=O)O)CC4)n4ncnc(N)c34)[nH]c12 [OSI-027] (partner 0.5 µM)
How it was run: as §1

[3] = compound: CC1=C(C(=O)N2C=CSC2=N1)CCN3CCC(=C(C4=CC=CC=C4)C5=CC=C(C=C5)F)CC3 + CC(=O)c1c(C)c2cnc(Nc3ccc(N4CCNCC4)cn3)nc2n(C2CCCC2)c1=O [Palbociclib] (partner 0.5 µM)
How it was run: as §1

[4] = compound: CC1=C(C(=O)N2C=CSC2=N1)CCN3CCC(=C(C4=CC=CC=C4)C5=CC=C(C=C5)F)CC3 + CCNC(=O)c1noc(-c2cc(C(C)C)c(O)cc2O)c1-c1ccc(CN2CCOCC2)cc1 [Luminespib] (partner 0.01 µM)
How it was run: as §1

Cell Line	relative viability ([1]; first compound 0.08 µM)	relative viability ([1]; first compound 0.253 µM)	relative viability ([1]; first compound 0.8 µM)	relative viability ([1]; first compound 2.53 µM)	relative viability ([1]; first compound 8 µM)	relative viability ([2]; first compound 0.08 µM)	relative viability ([2]; first compound 0.253 µM)	relative viability ([2]; first compound 0.8 µM)	relative viability ([2]; first compound 2.53 µM)	relative viability ([2]; first compound 8 µM)	relative viability ([3]; first compound 0.08 µM)	relative viability ([3]; first compound 0.253 µM)	relative viability ([3]; first compound 0.8 µM)	relative viability ([3]; first compound 2.53 µM)	relative viability ([3]; first compound 8 µM)	relative viability ([4]; first compound 0.08 µM)	relative viability ([4]; first compound 0.253 µM)	relative viability ([4]; first compound 0.8 µM)	relative viability ([4]; first compound 2.53 µM)	relative viability ([4]; first compound 8 µM)
NCI-H2347	0.417	0.691	0.764	0.394	0.614	0.371	0.425	0.406	0.332	0.349	0.358	0.428	0.434	0.442	0.461	0.367	0.361	0.353	0.334	0.547
NCI-H727	0.352	0.351	0.35	0.354	0.423	0.52	0.51	0.527	0.638	0.45	0.582	0.547	0.577	0.665	0.701	0.284	0.668	0.346	0.331	0.38
EMC-BAC-2	0.543	0.516	0.505	0.617	0.424	0.35	0.353	0.372	0.37	0.291	0.497	0.494	0.493	0.46	0.506	1.23	1.15	1.28	1.16	1.03
NCI-H1993	0.755	–	0.766	0.727	0.73	0.611	0.498	0.546	0.58	0.626	0.583	0.619	0.592	0.705	0.614	0.79	0.841	0.916	0.897	0.768
ABC-1	0.817	0.973	0.827	0.684	0.483	0.547	0.394	0.434	0.372	0.266	0.579	–	0.581	0.559	0.67	0.743	0.607	0.429	0.329	0.564
PC-3 [JPC-3]	0.78	0.746	0.72	0.765	0.711	0.783	0.662	0.831	0.772	0.633	0.58	–	0.576	0.596	0.579	0.802	0.656	0.66	0.678	0.585
HARA	0.527	0.423	0.383	0.202	0.289	0.379	0.577	0.534	0.454	0.275	0.307	0.275	0.276	0.289	0.285	0.682	0.73	0.688	0.477	0.426
NCI-H650	–	0.763	0.786	0.99	0.71	0.513	0.489	0.551	0.504	0.531	0.322	0.348	0.322	0.32	0.334	0.573	0.827	0.951	0.877	0.683
NCI-H2023	0.257	0.239	0.238	0.263	0.28	0.4	0.404	0.386	0.39	0.301	0.386	0.316	0.427	0.389	0.299	1.37	0.783	0.864	0.946	0.518
NCI-H2126	0.493	0.509	0.477	0.516	0.579	0.719	0.753	0.699	0.779	0.792	0.367	0.343	0.359	0.367	0.344	0.613	1.08	0.903	0.92	0.843
RERF-LC-KJ	0.627	0.495	0.511	0.497	0.487	0.411	0.583	0.546	0.523	0.497	1.18	1.04	0.97	0.991	0.637	1.14	1.12	1.22	1.24	0.813
NCI-H1793	0.368	0.283	0.249	0.341	0.23	0.302	0.3	0.261	0.293	0.186	0.212	0.311	0.272	0.345	0.318	0.167	0.207	0.161	0.178	0.168
NCI-H1734	0.476	0.468	0.485	0.504	0.331	0.549	0.571	0.564	0.576	0.416	0.367	0.342	0.324	0.318	0.378	0.202	0.174	0.205	0.166	0.183
NCI-H1395	0.772	0.641	0.531	0.572	0.629	0.685	0.626	0.558	0.596	0.621	0.623	0.656	0.551	0.616	0.61	0.606	0.746	1.01	0.955	0.776
NCI-H1651	0.621	0.676	0.51	0.684	0.495	0.71	0.768	0.698	0.697	0.461	0.499	0.534	0.508	0.517	0.481	1.04	0.943	1.07	1.04	0.588
LC-2-ad	0.418	0.369	0.513	0.646	0.427	0.876	0.994	0.87	0.913	0.663	0.463	0.459	0.475	0.473	0.458	1.27	1.36	1.12	1.19	0.918
